# Assay results from US6900219B2, “ABCA-1 elevating compounds” (CV Therapeutics, Inc., priority 2002, dated 2005).
# Tested on: ABCA-1 gene
# Assay: compounds tested and found to elevate cellular expression of the ABCA-1 gene (Examples 1-6; test not named)
# Assay type: cell-based
# Procedure: Activity testing is conducted as described in those patents and patent applications referenced above, and in the Examples below, and by methods apparent to one skilled in the art.
row,Compound,cellular expression of the ABCA-1 gene
1,"Cc1ccc(NC(=O)Nc2cccc(Cl)c2)cc1C [N-(3,4-dimethylphenyl)[(3-chlorophenyl)amino]carboxamide]",elevate cellular expression of the ABCA-1 gene
2,"Cc1ccc(NC(=O)Nc2ccc(Cl)cc2)cc1C [N-(3,4-dimethylphenyl)[(4-chlorophenyl)amino]carboxamide]",elevate cellular expression of the ABCA-1 gene
3,O=C(Nc1cccc(Cl)c1)c1ccc2ccccc2c1 [N-(3-chlorophenyl)-2-naphthylcarboxamide],elevate cellular expression of the ABCA-1 gene
4,Cc1cccc(NC(=O)c2cc3ccccc3oc2=O)c1 [N-(3-methylphenyl)(2-oxochromen-3-yl)carboxamide],elevate cellular expression of the ABCA-1 gene
5,"O=C(Nc1nc(-c2ccc3ccccc3c2)cs1)c1cccc(C(F)(F)F)c1 [N-(4-(2-naphthyl)(1,3-thiazol-2-yl))[3-(trifluoromethyl)phenyl]carboxamide]",elevate cellular expression of the ABCA-1 gene
6,"O=C(Nc1nc(-c2ccc3ccccc3c2)cs1)c1ccc(OC(F)(F)F)cc1 [N-(4-(2-naphthyl)(1,3-thiazol-2-yl))[4-(trifluoromethoxy)phenyl]carboxamide]",elevate cellular expression of the ABCA-1 gene
7,CC(=O)c1ccc(NC(=O)c2ccc(F)cc2)cc1 [N-(4-acetylphenyl)(4-fluorophenyl)carboxamide],elevate cellular expression of the ABCA-1 gene
8,CC(=O)c1ccc(NC(=O)Nc2cccc(Cl)c2)cc1 [N-(4-acetylphenyl)[(3-chlorophenyl)amino]carboxamide],elevate cellular expression of the ABCA-1 gene
9,O=C(Nc1ccc(Br)cc1)c1ccc2ccccc2c1 [N-(4-bromophenyl)-2-naphthylcarboxamide],elevate cellular expression of the ABCA-1 gene
10,N#Cc1cccc(C(=O)Nc2nc3c(Cl)cccc3s2)c1 [N-(4-chlorobenzothiazol-2-yl)(3-cyanophenyl)carboxamide],elevate cellular expression of the ABCA-1 gene
11,O=C(Nc1nc2c(Cl)cccc2s1)c1cccc(F)c1 [N-(4-chlorobenzothiazol-2-yl)(3-fluorophenyl)carboxamide],elevate cellular expression of the ABCA-1 gene
12,N#Cc1ccc(C(=O)Nc2nc3c(Cl)cccc3s2)cc1 [N-(4-chlorobenzothiazol-2-yl)(4-cyanophenyl)carboxamide],elevate cellular expression of the ABCA-1 gene
13,O=C(Nc1nc2c(Cl)cccc2s1)c1ccco1 [N-(4-chlorobenzothiazol-2-yl)-2-furylcarboxamide],elevate cellular expression of the ABCA-1 gene
14,O=C(Nc1nc2c(Cl)cccc2s1)c1cccs1 [N-(4-chlorobenzothiazol-2-yl)-2-thienylcarboxamide],elevate cellular expression of the ABCA-1 gene
15,CCCc1c(C(=O)Nc2nc3c(Cl)cccc3s2)cnn1-c1ccc(Cl)cc1 [N-(4-chlorobenzothiazol-2-yl)[1-(4-chlorophenyl)-5-propylpyrazol-4-yl]carboxamide],elevate cellular expression of the ABCA-1 gene
16,O=C(Nc1ccc(Cl)cc1)c1ccc2ccccc2c1 [N-(4-chlorophenyl)-2-naphthylcarboxamide],elevate cellular expression of the ABCA-1 gene
17,CCOc1ccc(NC(=O)Nc2ccc(Cl)cc2)cc1 [N-(4-ethoxyphenyl)[(4-chlorophenyl)amino]carboxamide],elevate cellular expression of the ABCA-1 gene
18,O=C(Nc1ccc(F)cc1)c1cc2ccccc2oc1=O [N-(4-fluorophenyl)(2-oxochromen-3-yl)carboxamide],elevate cellular expression of the ABCA-1 gene
19,"Cc1ccc(NC(=O)Oc2ccc(C3=NCCS3)cc2)cc1 [N-(4-methylphenyl)(4-(1,3-thiazolin-2-yl)phenoxy)carboxamide]",elevate cellular expression of the ABCA-1 gene
20,"Cc1cc(C)c2ccc(NC(=O)c3ccc(Cl)cc3)nc2n1 [N-(5,7-dimethylpyridino[3,2-e]pyridin-2-yl)(4-chlorophenyl)carboxamide]",elevate cellular expression of the ABCA-1 gene
21,"O=C(Cc1cccs1)Nc1ncc(-c2ccccc2)s1 [N-(5-phenyl(1,3-thiazol-2-yl))-2-(2-thienyl)acetamide]",elevate cellular expression of the ABCA-1 gene

row,Compound,cellular expression of the ABCA-1 gene
1,"O=C(Nc1ncc(-c2ccccc2)s1)c1ccccn1 [N-(5-phenyl(1,3-thiazol-2-yl))-2-pyridylcarboxamide]",elevate cellular expression of the ABCA-1 gene
2,"O=C(Nc1ncc(-c2ccccc2)s1)c1cccc(C(F)(F)F)c1 [N-(5-phenyl(1,3-thiazol-2-yl))[3-(trifluoromethyl)phenyl]carboxamide]",elevate cellular expression of the ABCA-1 gene
3,"O=C(Nc1ncc(-c2ccccc2)s1)c1ccc(OC(F)(F)F)cc1 [N-(5-phenyl(1,3-thiazol-2-yl))[4-(trifluoromethoxy)phenyl]carboxamide]",elevate cellular expression of the ABCA-1 gene
4,N#Cc1cccc(C(=O)Nc2nc3ccc(Cl)cc3s2)c1 [N-(6-chlorobenzothiazol-2-yl)(3-cyanophenyl)carboxamide],elevate cellular expression of the ABCA-1 gene
5,CCOc1ccc2nc(NC(=O)Nc3ccccc3)sc2c1 [N-(6-ethoxybenzothiazol-2-yl)(phenylamino)carboxamide],elevate cellular expression of the ABCA-1 gene
6,CCOc1ccc2nc(NC(=O)CC)sc2c1 [N-(6-ethoxybenzothiazol-2-yl)propanamide],elevate cellular expression of the ABCA-1 gene
7,O=C(c1ccc(Br)cc1)N(CCc1ccccc1)Cc1c2ccccc2cc2ccccc12 [N-(9-anthrylmethyl)(4-bromophenyl)-N-(2-phenylethyl)carboxamide],elevate cellular expression of the ABCA-1 gene
8,CCOc1ccc(C(=O)N(Cc2c3ccccc3cc3ccccc23)C(=O)Nc2ccccc2F)cc1 [N-(9-anthrylmethyl)(4-ethoxyphenyl)-N-{[(2-fluorophenyl)amino]carbonyl}-carboxamide],elevate cellular expression of the ABCA-1 gene
9,COc1ccc(C(=O)N(CCc2ccccc2)Cc2c3ccccc3cc3ccccc23)cc1 [N-(9-anthrylmethyl)(4-methoxyphenyl)-N-(2-phenylethyl)carboxamide],elevate cellular expression of the ABCA-1 gene
10,CCc1ccc(N(Cc2c3ccccc3cc3ccccc23)C(=O)Nc2ccccc2F)cc1 [N-(9-anthrylmethyl)-N-(4-ethylphenyl)[(2-fluorophenyl)amino]carboxamide],elevate cellular expression of the ABCA-1 gene
11,CCn1c2ccccc2c2cc(NC(=O)c3ccc(F)cc3)ccc21 [N-(9-ethylcarbazol-3-yl)(4-fluorophenyl)carboxamide],elevate cellular expression of the ABCA-1 gene
12,CCn1c2ccccc2c2cc(NC(=O)c3ccc(OC)cc3)ccc21 [N-(9-ethylcarbazol-3-yl)(4-methoxyphenyl)carboxamide],elevate cellular expression of the ABCA-1 gene
13,CCn1c2ccccc2c2cc(NC(=O)c3ccc(C)cc3)ccc21 [N-(9-ethylcarbazol-3-yl)(4-methylphenyl)carboxamide],elevate cellular expression of the ABCA-1 gene
14,CCCCCCCCCCCC(=O)N(/C=C/c1ccccc1)c1ccc(CC)cc1 [N-((1E)-2-phenylvinyl)-N-(4-ethylphenyl)dodecanamide],elevate cellular expression of the ABCA-1 gene
15,CCc1ccc(C(=O)N(C/C=C/c2ccccc2)c2ccc(Br)cc2)cc1 [N-((2E)-3-phenylprop-2-enyl)-N-(4-bromophenyl)(4-ethylphenyl)carboxamide],elevate cellular expression of the ABCA-1 gene
16,"O=C(NCCc1ccccc1F)c1ccc2oc(N3CCCN(C(=O)Cc4ccc(C(F)(F)F)cc4)CC3)nc2c1 [N-[2-(2-fluorophenyl)ethyl][2-(4-{2-[4-(trifluoromethyl)phenyl]acetyl}(1,4-diazaperhydroepinyl))benzoxazol-5-yl]carboxamide]",elevate cellular expression of the ABCA-1 gene
17,"O=C(NCCc1ccccc1F)c1ccc2oc(N3CCCN(C(=O)CCc4c[nH]c5ccccc45)CC3)nc2c1 [N-[2-(2-fluorophenyl)ethyl]{2-[4-(3-indol-3-ylpropanoyl)(1,4-diazaperhydroepinyl)]benzoxazol-5-yl}carboxamide]",elevate cellular expression of the ABCA-1 gene
18,"COc1ccc(CCN(Cc2ccc(C(C)(C)C)cc2)C(=O)c2ccco2)cc1OC [N-[2-(3,4-dimethoxyphenyl)ethyl]-N-{[4-(tert-butyl)phenyl]methyl}-2-furylcarboxamide]",elevate cellular expression of the ABCA-1 gene
19,"COc1ccc(CN(CCc2ccc(OC)c(OC)c2)C(=O)C2CC2)cc1 [N-[2-(3,4-dimethoxyphenyl)ethyl]cyclopropyl-N-[(4-methoxyphenyl)methyl]-carboxamide]",elevate cellular expression of the ABCA-1 gene
20,O=C(CNC(=O)c1ccccc1F)c1ccc(Cl)cc1 [N-[2-(4-chlorophenyl)-2-oxoethyl](2-fluorophenyl)carboxamide],elevate cellular expression of the ABCA-1 gene
21,CC(c1nc2ccccc2c(=O)n1-c1ccc2ccccc2c1)N(CCN(C)C)C(=O)Nc1cccc(C#N)c1 (stereo not drawn) [N-[2-(dimethylamino)ethyl][(3-cyanophenyl)amino]-N-[(3-(2-naphthyl)-4-oxo(3-hydroquinazolin-2-yl))ethyl]carboxamide],elevate cellular expression of the ABCA-1 gene
